# Measured values taken from patent US6790603B2, “Compositions for the storage of platelets” (Bioenergy, Inc., priority 1999, dated 2004).
# Experiments:
# platelets [1] = experiment: Platelet aggregation on thrombin challenge (optical density / aggregometer); assay type: cell-based
# Procedure: As a second measure of the effect of ribose on platelets, platelet aggregation was estimated. Platelet aggregation is a crucial function of platelet activity; platelets that cannot aggregate are essentially nonfunctional. Platelets were stored as above.
# The optical density of the suspension was measured before and after thrombin challenge.
# Platelet aggregation was measured with a platelet aggregometer (Chronolog, Inc., Irvine, Calif.). Platelet-rich, turbid suspensions were stirred in a cuvette and the transmittance of light through the sample relative to a platelet poor blank is recorded. When a aggregating agent is added, activated platelets with exposed fibrinogen receptors (GPIIbIIIa) are brought in close contact with each other in a medium containing calcium and fibrinogen and form increasingly large platelet aggregates, accompanied by a decrease in turbidity. The change in optical density was then translated by the instrument to percent aggregation. Simple stated, as platelets clump, more light passes through the cuvette.
# platelets [2] = experiment: P-selectin expression in stored platelets, basal and after 10 nM thrombin challenge (flow cytometry); assay type: cell-based
# Procedure: A basal measurement of spontaneous activation is obtained and the cells are then challenged with an agonist. The difference between cells challenged to activate minus the basal measurement is a measure of cell function. In the preferred embodiment, the agonist is 10 nM thrombin. P-selectin expression in response to a challenge of 10 nM thrombin is a highly accurate and quantitative method to assess platelet function using flow cytometry techniques. A monoclonal antibody to the platelet GPIIbIIIa receptor (Becton-Dickinson) is conjugated with green fluorescence, marking all platelets with a green detection. […] About 10,000 to 25,000 platelets are counted and measured for P-selectin expression and the % positive cells are defined as activated platelets that express P-selectin. Platelets that are activated are not capable of being activated a second time; that is, they are essentially nonfunctional. It was proposed years ago by Dawson (Transfusion 21:215-218. (1981)) that ribose at the concentration of 15 mM is beneficial to stored whole blood. It was assumed that ribose functioned by raising the energy levels of the cells, as discussed at length in U.S. Pat. No. 6,159,942. […] Platelet function was assessed by ATP secretion, platelet aggregation, P-selectin expression, platelet count and pH. Platelet function was measured every 24 hours. […]
# platelets [3] = experiment: Preservation of function in stored platelets (ATP secretion, aggregation, P-selectin expression, pH, platelet count); assay type: cell-based
# Procedure: It is known that other pentoses may have similar effects as D-Ribose, either through intracellular conversion to ribose or a direct effect. Ribulose-5-phosphate, xylulose-5-phosphate and xylitol were tested for preservation of activity in stored platelets according to the methods of examples 1 to 6.
# Ribulose-5-phosphate was purchased from Sigma Chemical (St. Louis) and added to the standard CPD platelet storage solution. The following parameters of function were tested: ATP secretion in response to 10 nM thrombin; platelet aggregation; P-selectin expression in response to thrombin challenge; pH change; and platelet count. Platelet concentrate bags were obtained from a transfusion center within hours of collection. Aliquots were sampled from the platelet bags and concentrations of ribulose-5-phosphate were added for a final concentration from 1.5 mM down to 150 pM. Controls without ribulose-5-phosphate were analyzed for comparison. Samples were analyzed every 24 hours for platelet function.
# [4] = 30 grams of ribose each day; cited from earlier work
# whole blood = conditions: 15 mM ribose; cited from earlier work
# bacteria = experiment: Bacterial contamination of platelet storage solution (colony counts in Petri dishes); conditions: D-Ribose added to storage cocktail
# Procedure: Bacterial contamination was measured by colony counts in standard Petri dishes that had been inculated with the test solution. It is assumed that the millimolar glucose concentration in most platelet storage solutions contributes to the growth of bacteria. As noted above, Murphy (Table II) discloses a glucose-free solution for the storage of platelets. Elimination of reduction of glucose levels from millimolar to micromolar concentrations has a profound effect in reducing bacterial contamination, however, platelet function at five days, as measured by ATP secretion and P-selectin expression, was poor.
# platelets [5] = experiment: ATP secretion in response to 10 nM thrombin (luciferin/luciferase assay); assay type: cell-based
# From the text: The platelet dense granules shown in FIG. 1 contain ATP which is released in response to platelet agonists such as thrombin, collagen or adenosine diphosphate (ADP). The release reaction of ATP from platelets serves as another method to monitor platelet function. There are many methods to analyze ATP. A convenient method is the well known luciferin/luciferase reaction (Sigma Chemical, St. Louis). This assay is derived from the light producing system of the firefly. The substrate luciferin, in the presence of ATP, is cleaved by the enzyme luciferase, accompanied by the emission of light. The emitted light is measured by a photomultiplier tube
# Platelet suspensions containing about 350 units in 4 μl were mixed with 10 μl luciferin/luciferase reagent. An agonist is injected. As the platelet dense granules release ATP, the bioluminescent reaction occurs, which is measured by the photomultiplier tube. […] The rate of reaction is recorded and as platelet function decays, the rate decays. Total ATP was measured by lysing the cells with Triton and determining ATP content. The results as presented in Table III are expressed as intact rate of ATP secretion.
compound,measurement,setting,value
O=C[C@H](O)[C@H](O)[C@H](O)CO [D-Ribose],Platelet samples with aggressive aggregation response,"platelets [1]; day 3, 10 nM thrombin",all five
same,Platelet samples responding (aggregation),"platelets [1]; day five, thrombin",four out of five
same,Platelet samples able to aggregate,"platelets [1]; day seven, thrombin",three out of five
same,Aggregation on thrombin challenge,platelets [1]; platelets stored in 150 pM D-Ribose,no aggregation
same,Aggregation on thrombin challenge,platelets [1]; platelets stored in 150 nM D-Ribose,strong aggregation
same,Aggregation on thrombin challenge,platelets [1]; platelets stored in 15 μM D-Ribose,very weak effect
same,Aggregation on thrombin challenge,platelets [1]; platelets stored in 1.5 mM D-Ribose,no aggregation
same,Preservation of function (P-selectin expression test),"platelets [2]; 150 pM D-Ribose, five days storage",ineffective
same,% positive (activated) cells,"platelets [2]; 153 nM D-Ribose, three days storage, basal",5%
same,Platelet function compared with storage in presence of glucose,"platelets [3]; 150 nM D-Ribose, glucose eliminated or reduced to micromolar",similar
same,Tolerability of ingestion,[4],no ill effects
same,Effect on stored whole blood,whole blood,beneficial
same,Bacterial contamination,bacteria,lower incidence of bacterial contamination
same,Preservative effect on ATP secretion,platelets [5]; 1.5 nM D-Ribose,no preservative effect
same,Rise in total ATP content of treated cells,platelets [5]; 150 nM D-Ribose,more than 10%
same,Toxicity to platelets,platelets [5]; 15 mM D-Ribose,toxic to platelets
same,"Mean ATP secretion activity, % of baseline","platelets [5]; optimal D-Ribose (150 nM), day 7",> 80%
"O=C(CO)[C@@H](O)[C@H](O)COP(=O)(O)O [xylulose-5-phosphate, Xylulose-5-phosphate]",Platelet aggregation,platelets [1]; five days storage,weak
"O=C(CO)[C@H](O)[C@H](O)COP(=O)(O)O [ribulose-5-phosphate, Ribulose-5-phosphate]",Platelet function parameters versus controls,"platelets [3]; 1.5 mM down to 150 pM, analyzed every 24 hours",No difference from controls
OC[C@@H](O)[C@H](O)[C@@H](O)CO [xylitol],Preservation of platelet function,platelets [3]; trends inconsistent,some benefit
